Columns and labels:
[1] = target: T1, Nox2 (Homo sapiens, UniProt P04839); test: Amplex Red/HRP assay of H2O2 production by PMA-activated dHL60 cells; type: cell-based; settings: PMA (1 µM)-activated dHL60 cells, 30 min preincubation; read-out: IC50, inhibition of H2O2 production, Amplex Red Assay
T1 construct: endogenous in cells
T1 sequence (P04839 2-570 limits assumed): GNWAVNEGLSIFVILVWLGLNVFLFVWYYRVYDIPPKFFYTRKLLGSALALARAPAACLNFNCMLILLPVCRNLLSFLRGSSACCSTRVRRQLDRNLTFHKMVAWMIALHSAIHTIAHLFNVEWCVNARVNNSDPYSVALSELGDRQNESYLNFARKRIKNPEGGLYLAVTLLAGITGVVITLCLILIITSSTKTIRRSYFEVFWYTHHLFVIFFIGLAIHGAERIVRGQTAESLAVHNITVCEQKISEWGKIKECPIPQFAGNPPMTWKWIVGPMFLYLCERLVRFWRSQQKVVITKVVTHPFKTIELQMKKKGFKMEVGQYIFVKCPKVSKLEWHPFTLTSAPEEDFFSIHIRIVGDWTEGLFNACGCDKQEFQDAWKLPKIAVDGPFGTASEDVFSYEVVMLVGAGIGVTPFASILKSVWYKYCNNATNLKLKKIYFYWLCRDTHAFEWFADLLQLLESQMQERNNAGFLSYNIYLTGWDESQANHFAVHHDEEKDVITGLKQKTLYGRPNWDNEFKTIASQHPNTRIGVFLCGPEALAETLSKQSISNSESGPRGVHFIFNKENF
T1 sequence (P13498 2-195 partner limits assumed): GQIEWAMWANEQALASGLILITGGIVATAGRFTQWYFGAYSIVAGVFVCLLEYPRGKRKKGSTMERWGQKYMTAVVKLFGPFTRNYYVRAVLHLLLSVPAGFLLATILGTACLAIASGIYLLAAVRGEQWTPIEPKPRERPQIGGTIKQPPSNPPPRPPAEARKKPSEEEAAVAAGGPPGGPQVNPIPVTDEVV
Procedure: (§1) Human promyelocytic leukemia HL60 cells (Sigma-Aldrich) were grown in RPMI 1640 medium (Gibco, 11875-093, Billings, MT, USA) supplemented with 10% FBS (Omega Scientific (Tarzana, CA, USA)), 100 units/mL penicillin, and 100 µg/mL streptomycin, and were incubated at 37 °C and 5% carbon dioxide (CO2). For differentiation to neutrophil-like cells, HL60 cells were pelleted and resuspended in fresh media containing 1 µM of all trans-retinoic acid and incubated for four to five days. Nox2 activation was achieved by treating differentiated HL60 (dHL60) cells with 1 µM PMA [24]. Human leukemia monocytic cells, THP-1, were grown in RPMI 1640 medium + GlutaMAX^TM (Gibco, 61870-036) and supplemented with 10% FBS, 10 mM HEPES, and 1 mM sodium pyruvate and incubated at 37 °C in 5% CO2 environment. To induce differentiation into macrophages, THP-1 cells were treated with PMA (100 ng/mL) for 48 h. To test the efficacy of Nox2 inhibitors, treatment was performed with or without the inhibitor, along with PMA [35].
Plate reader-based analyses of the production of O2^•− and H2O2 by PMA-activated dHL60 cells were performed according to a published protocol with minor modifications. Briefly, for the treatment of dHL60 cells with different concentrations of the compounds, 0.5 mL deep-well 96-well plates were used to dispense and store aliquots of their 10 mM DMSO solutions. Using a Multidrop™ PicoIT dispenser (Thermo Scientific), different volumes of the solutions of candidate Nox inhibitors (10 or 50 mM in DMSO) were injected into the bottom of 0.5 mL V-bottom 96-well plates; then, they were sealed with aluminum foil (VWR, Batavia, IL, USA) using a semiautomatic thermal sealer (BT LabSystems, St. Louis, MO, USA) and stored at −20 °C to reduce freeze-thawing the solutions. The plates with inhibitors were allowed to come to room temperature before the addition of the cell suspensions. dHL60 cells were pelleted and resuspended in HBSS (Invitrogen, Waltham, MA, USA) supplemented with 25 mM HEPES (pH 7.4) and 100 µM DTPA to a cell density of 2 × 10^5 cells/mL. dHL60 cells were added to the V-bottom plates at a volume of 210 µL/well. Next, cells were incubated with inhibitors for 30 min at 37 °C in a CO2-free incubator under ambient oxygen and then transferred to black, clear-bottom 96-well plates (200 µL/well) after incubation. Freshly prepared PMA plus probe solutions in HBSS (5× concentrated, 50 µL/well) included PMA (5 µM) with CBA (500 µM) or with Amplex Red (250 µM) plus HRP (0.5 U/mL) for H2O2 detection, or with HE (50 µM) plus DNA (0.5 mg/mL) for O2^•− detection. Once probes + PMA were added, plates were sealed with sealing film and immediately placed in the pre-warmed plate readers (37 °C). Fluorescence intensities were monitored kinetically from the bottom of the plates every 1.3 min for a period of 2 h using Beckman Coulter (Brea, CA, USA) DTX880 and BMG Labtech (Ortenberg, Germany) FLUOstar Omega plate readers. DMSO alone and DPI (10 µM) were used as negative and positive controls, respectively. […] The IC50 values were determined using at least five independent measurements, each consisting of technical quadruplicates per concentration.

[2] = system: THP-1 cells; test: qRT-PCR mRNA expression of Nox2 subunits and inflammatory mediators in PMA-treated THP-1 cells; type: cell-based, human; settings: 3 µM, 48 h with PMA 100 ng/mL
Procedure: as §1
mRNA expression analysis was performed as previously described. Briefly, THP-1 cells were treated with PMA (100 ng/mL) with or without the Nox2 inhibitor TG15-132 (3.0 µM) for 48 h. RNA extraction was done using the Quick-RNA miniprep kit (cat. no. R1055, Zymo Research, Irvine, CA, USA) and followed by cDNA synthesis using the qScript cDNA superMix kit (cat. no. 84035, Quantabio, Beverly, MA, USA). Quantitative real-time PCR was performed using specific primers designed to amplify target genes (Table 2). Data obtained were analyzed and converted into fold changes in expression with respect to vehicle-treated cells.

IC50 [1]: 7.9 ± 3 µM
Compound: CN(C)CCCn1c(SCCc2c[nH]c3ccccc23)nc2ccc(F)cc2c1=O [TG15-132]
mRNA expression vs PMA-treated cells, additional experiment (Figure 7B) [2]: statistically significant reduction in the expression of p47^phox, IL-1β, and TNF
mRNA expression vs cells treated with PMA alone (Figure 7A) [2]: reduced the expression of gp91^phox, p47^phox, p67^phox, IL-1β, and TNF
